From patent publication US11447517B2, “Galactoside inhibitor of galectins” (GALECTO BIOTECH AB, priority 2018, dated 2022)

Assays:
[1] = biological target: galectin-3 (Homo sapiens (Human), UniProt P17931); test: Fluorescence anisotropy assay, inhibition of galectin / fluorescein tagged saccharide probe interaction; assay type: binding
[2] = Uptake over CACO-2 cell monolayers; assay type: in vitro ADME; details: human; for Papp A→B: apical to basolateral; for Papp B→A: basolateral to apical; for efflux ratio: read-out: Efflux ratio Papp (B > A/A > B)
Excerpt: Uptake of a drug over the intestine can be predicted measuring the uptake over a monolayer of CACO-2 cells measured as Papp(10^-6 cm/s). […] By introduction of small alkyl substituents to the galactoside 2-OH such as compounds of formula (1) results in low or no efflux combined with a high uptake (Papp >10 10^-6 cm/s) over CACO-2 cells from the apical to the basolateral side of the cells.

[3] = tested on: galectins; details: cited from earlier work

galectin-3, sequence (P17931 whole entry): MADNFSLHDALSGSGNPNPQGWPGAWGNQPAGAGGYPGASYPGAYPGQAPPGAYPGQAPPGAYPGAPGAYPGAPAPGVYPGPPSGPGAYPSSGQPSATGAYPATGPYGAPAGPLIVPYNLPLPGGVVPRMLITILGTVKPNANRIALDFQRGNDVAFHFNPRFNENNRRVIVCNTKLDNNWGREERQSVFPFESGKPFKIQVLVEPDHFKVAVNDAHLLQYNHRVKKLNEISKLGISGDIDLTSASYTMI

| Compound | Kd [1] | Papp A→B [2] | Papp B→A [2] | efflux ratio [2] | Affinity, times lower than lactose ([3]; relative to lactose) | Kd ([3]; Leffler 2001, Leffler et al. 2004, read-out: Kd, all galectins) |
| --- | --- | --- | --- | --- | --- | --- |
| CO[C@@H]1[C@@H](n2cc(-c3ccc(C)c(F)c3)nn2)[C@@H](O)[C@@H](CO)O[C@@H]1Sc1cncc(Cl)c1 [Example 35, 5-Chloropyridin-3-yl 3-deoxy-3-[4-(3-fluoro-4-methylphenyl)-1H-1,2,3-triazol-1-yl]-2-O-methyl-1-thio-α-D-galactopyranoside] | 0.045 µM | 31 ×10⁻⁶ cm/s | 45 ×10⁻⁶ cm/s | 1.4 | – | – |
| CO[C@@H]1[C@@H](n2cc(-c3ccc(C)c(F)c3)nn2)[C@@H](O)[C@@H](CO)O[C@@H]1Sc1cc(Cl)cnc1C#N [Example 13, 5-Chloro-2-cyanopyridin-3-yl 3-deoxy-3-[4-(3-fluoro-4-methylphenyl)-1H-1,2,3-triazol-1-yl]-2-O-methyl-1-thio-α-D-galactopyranoside] | 0.014 µM | 18 ×10⁻⁶ cm/s | 23 ×10⁻⁶ cm/s | 1.3 | – | – |
| CO[C@@H]1[C@@H](n2cc(-c3ccc(C)c(F)c3)nn2)[C@@H](O)[C@@H](CO)O[C@@H]1Sc1cncc(Br)c1 [Example 36, 5-Bromopyridin-3-yl 3-deoxy-3-[4-(3-fluoro-4-methylphenyl)-1H-1,2,3-triazol-1-yl]-2-O-methyl-1-thio-α-D-galactopyranoside] | 0.026 µM | 28 ×10⁻⁶ cm/s | 32 ×10⁻⁶ cm/s | 1.1 | – | – |
| N#Cc1ncc(Cl)cc1S[C@H]1OC(CO)[C@H](O)[C@H](n2cc(-c3cc(F)c(Cl)c(F)c3)nn2)C1O (stereo partly shown) | – | 5 ×10⁻⁶ cm/s | 46 ×10⁻⁶ cm/s | 9 | – | – |
| CO[C@@H]1[C@@H](n2cc(-c3cc(F)c(F)c(F)c3)nn2)[C@@H](O)[C@@H](CO)O[C@@H]1Sc1cncc(Br)c1 [Example 1, 5-Bromopyridin-3-yl 3-deoxy-3-[4-(3,4,5-trifluorophenyl)-1H-1,2,3-triazol-1-yl]-2-O-methyl-1-thio-α-D-galactopyranoside] | 0.025 µM | 30 ×10⁻⁶ cm/s | 38 ×10⁻⁶ cm/s | 1.2 | – | – |
| OCC1O[C@H](Sc2cncc(Cl)c2)C(O)[C@@H](n2cc(-c3cc(F)c(F)c(F)c3)nn2)[C@H]1O (stereo partly shown) | – | 4 ×10⁻⁶ cm/s | 36 ×10⁻⁶ cm/s | 9 | – | – |
| O=C[C@H](O)[C@@H](O)[C@@H](O)[C@H](O)CO [D-galactose] | – | – | – | – | 50-100 times | – |
| CO[C@@H]1[C@@H](n2cc(-c3ccc(C)c(F)n3)nn2)[C@@H](O)[C@@H](CO)O[C@@H]1Sc1cncc(Cl)c1 [Example 43, 5-Chloropyridin-3-yl 3-deoxy-3-[4-(6-fluoro-5-methylpyridin-2-yl)-1H-1,2,3-triazol-1-yl]-2-O-methyl-1-thio-α-D-galactopyranoside] | 0.039 µM | 26 ×10⁻⁶ cm/s | 34 ×10⁻⁶ cm/s | 1.3 | – | – |
| OC[C@H]1O[C@@H](O[C@H]2[C@H](O)[C@@H](O)C(O)O[C@@H]2CO)[C@H](O)[C@@H](O)[C@H]1O (stereo partly shown) [lactose] | – | – | – | – | – | 500 to 1000 µM |
